From BindingDB's records for doi:10.1021/jm9911581 (Cnrs Umr 8532, 2000)
pIC50: −log10 of the molar value.

Test system: HIV-1 integrase catalytic core (disintegration assay)
Assay: Compound was tested in vitro to inhibit human immuno virus-1 (HIV-1) using enzymatic disintegration assay.

| SMILES | pIC50 |
| --- | --- |
| O=C(O)c1cc(/C=C/c2ccc3ccc(C(=O)O)c(O)c3n2)ccc1O [2-(3-carboxy-4-hydroxystyryl)-8-hydroxyquinoline-7-carboxylic acid] | 5.57 |
| Oc1cccc2ccc(/C=C/c3ccccc3)nc12 [2-Styryl-quinolin-8-ol] | < 4.00 |
| O=C(O)c1ccc2ccc(/C=C/c3ccc(O)cc3)nc2c1O [8-hydroxy-2-(4-hydroxystyryl)quinoline-7-carboxylic acid] | 5.38 |
| O=C(O)c1ccc2ccc(/C=C/c3ccccc3)nc2c1O [8-hydroxy-2-styrylquinoline-7-carboxylic acid] | 5.47 |
